# Entries after “also recorded” stand apart in the source; their conditions may differ.
# Legend:
# [1] = Human colon model (faecal slurry): stability of 5-ALA with SFC and formation of PpIX; format: in vitro ADME
# Experimental: (§1) A human colonic model based on a mixed fecal inoculum was used to mimic the luminal environment of the human large intestine. An anaerobic workstation (Electrotek 500TG™ workstation, Electrotek, West Yorkshire, UK) maintained at 37° C. and 70% relative air humidity was used to set up the model. The fecal material was transferred in the anaerobic workstation and diluted with freshly prepared basal medium to obtain 20% w/w slurry by homogenization. The basal media provides nutrients and growth factors to the microbiota allowing viability for up to 24 hours. The homogenized bacterial media was sieved through an open mesh fabric (SefarNitex™, pore size 350 μm) to remove any nonhomogeneous fibrous material. […]
# (§2) For 5-ALA analysis, a 150×4.6-mm Jupiter 5 μm 300 Å (Phenomenex, Torrance, CA) C18 column was used using 70% water (0.1% TFA) and 30% acetonitrile (0.1% TFA) as the mobile phase for elution, at a flow rate of 1 ml/min. The analysis was operated at room temperature and fluorescence detection wavelength was set at 395/480 nm excitation/emission. […]
# (§3) For PpIX analysis, a 150×4.6-mm Aeris 3.6 μm 100 Å (Phenomenex, Torrance, CA) C18 column was used using 70% acetonitrile and 30% 10 mM TBA solution (pH 7.5) as the mobile phase at a flow rate of 1 ml/min. The analysis was operated at room temperature and fluorescence detection wavelength was set at 400/630 nm excitation/emission. […]
# [2] = Mouse colon model (faecal slurry): stability of 5-ALA with SFC and formation of PpIX; format: in vitro ADME, C57BL6 mice
# Experimental: as §1, with “mouse” for “human”, “model. Three healthy male C57BL6 mice were sacrificed and the fecal contents were collected.” for “model.”, “upto” for “up to”, “hours.” for “hours. The homogenized bacterial media was sieved through an open mesh fabric (SefarNitex™, pore size 350 μm) to remove any nonhomogeneous fibrous material.”
# as §2, §3
# [3] = Ussing chamber: human colon tissue penetration and permeability of 5-ALA with SFC, metabolite formation; format: in vitro ADME
# Experimental: (§4) The chambers are made of solid acrylic and supports the tissue membrane in such a way that each side of the membrane is isolated and faces a different chamber representing the luminal (apical) and blood (basal) compartments. The working system consists of a unit to fit a maximum of six vertical chambers, a gas manifold for carbogen purging (95% O2, 5% CO2) and a heater block to maintain the temperature of the chambers at 37° C. during the experiments with the use of a circulating water bath. The chambers are two-piece assemblies held together by a high spring-tension retaining ring to ensure leak-free operation during the experiments.
# (§5) The EVOM™ voltohmmeter (World Precision Instruments, Inc., Hertfordshire, UK) and Ag/AgCl electrodes (Harvard Apparatus, Cambridge, UK) were used to measure the trans-epithelial electrical resistance (TEER) of the tissue samples. TEER monitors the presence of functional tight junctions, which are responsible for the barrier function and which limit Paracellular permeation of water and solutes. […]
# (§6) For the tissue penetration studies, the freshly excised colon of human subject or C57BL6 mice was collected and transferred to an ice-cold solution of Krebs-Bicarbonate Ringer solution (KBr) of pH 7.4. […] The TEER was continuously monitored during the experiment to confirm the viability and integrity of the tissue.
# [4] = Ussing chamber: mouse colon tissue penetration and permeability of 5-ALA with SFC, metabolite formation; format: in vitro ADME, C57BL6 mice; details: mouse colon vs human colon, 3 hours
# Experimental: as §4, §5, §6
# [5] = tested on: DSS induced colitis mouse model
# [6] = intra-colonic vs oral, 10 and 100 mg/kg, day 10
# [7] = oral vs intra-colonic dosing, day 10
smiles,measurement,setting,value
"NCC(=O)CCC(=O)O [5-ALA, 5-aminolevulinic acid]",Stability of 5-ALA in human colon fluid,"[1]; 6 mg/ml 5-ALA + 1 mg/ml SFC, 10% w/w human faecal slurry, up to 24 hrs",completely stable; also recorded: very stable
same,Conversion of 5-ALA into PpIX in human colon fluid,[1]; in the presence of SFC,no conversion; also recorded: no metabolism
same,Stability of 5-ALA in mouse colon fluid,"[2]; 6 mg/ml 5-ALA + 1 mg/ml SFC, 10% w/w mouse faecal slurry, up to 24 hrs",completely stable
same,Conversion of 5-ALA into PpIX in mouse colon fluid,[2]; in the presence of SFC,no conversion
same,Tissue conc. of 5-ALA,"[3]; human colon vs mouse colon, Ussing chamber, 3 hours",higher in human colon compared to mouse colon
same,Penetration of 5-ALA into colon tissue,[3]; human colonic tissue in vitro,readily able to penetrate effectively into colon tissue
same,Permeability of 5-ALA across the tissue,[4],higher
same,Reduction of expression of IL-1β in the colon tissue and plasma,[5]; [6],significantly better than after oral administration
same,Reduction of expression of IL-6 in the colon tissue and plasma,[5]; [6],significantly better than after oral administration
same,Reduction of expression of TNF-α in the colon tissue and plasma,[5]; [6],significantly better than after oral administration
same,Expression of HO-1 in the colon tissue and plasma,[5]; oral vs intra-colonic dosing,no significant difference
same,Expression of 5-ALA metabolite PpIX in the plasma,"[5]; oral vs intra-colonic dosing, 10 and 100 mg/kg","Significantly enhanced expression of PpIX was observed in the plasma after oral dosing, but not intra-colonic dosing"
same,Bilirubin expression in the colon tissue and plasma,[5]; [7],no significant difference
same,Biliverdin expression in the colon tissue and plasma,[5]; [7],no significant difference
same,Reduction in inflammatory cytokines compared with 5-ASA,[5]; vs 5-ASA 50 mg/kg oral and intra-colonic,superior to 5-ASA given both orally and intra-colonic

# Reference: patent US20250041231A1, “5-AMINOLEVULINIC ACID FOR THE LOCAL TREATMENT OF INFLAMMATORY BOWEL DISEASE” (Intract Pharma Limited, priority 2019, published 2025)
